Test results: PMC8764033, “Single-molecule analysis of specificity and multivalency in binding of short linear substrate motifs to the APC/C” (Nature Communications, 2022)
“Also recorded” adds a separate entry of the source. Where a SMILES comes first, the peptide text is derived from it.

Legend:
Cdh1^WD40 = biological target: T1, Cdh1^WD40 (Saccharomyces cerevisiae, UniProt P53197); assay: SMOR assay (single-molecule off-rate, TIRF), yeast Cdh1^WD40; type: binding
T1 construct: the WD40 domains of yeast Cdh1 (aa 241–550; pNH144); made in house; host or cells: Sf9 insect cells (baculovirus)
T1 sequence (P53197 241-550): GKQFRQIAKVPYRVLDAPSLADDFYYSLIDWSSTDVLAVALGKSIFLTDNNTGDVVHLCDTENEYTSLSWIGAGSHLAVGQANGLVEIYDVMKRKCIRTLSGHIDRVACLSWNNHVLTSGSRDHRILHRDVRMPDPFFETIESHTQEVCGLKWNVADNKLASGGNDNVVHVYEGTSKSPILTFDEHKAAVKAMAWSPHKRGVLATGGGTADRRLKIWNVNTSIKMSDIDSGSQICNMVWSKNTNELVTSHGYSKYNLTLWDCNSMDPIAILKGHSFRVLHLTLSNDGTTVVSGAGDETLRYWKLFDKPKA
Experimental: Activators were cloned into the pFastBac HT A vector, with an N-terminal 2xStrep-Tag II. For some experiments, we constructed vectors for expression of the WD40 domains of yeast Cdh1 (aa 241–550; pNH144), human Cdh1 (aa 165–484; pNH164), or human Cdc20 (aa 162–484; pNH188). For SMOR, a C-terminal GFP tag was added. Bacmid plasmids are listed in Supplementary Table 3. Plasmids were transformed into DH10Bac cells, and purified Bacmid was used to transfect Sf9 cells to generate P1 baculovirus, which was used to generate P2 virus. SF9 cells were infected with the P2 virus for 48 h. Flash-frozen pellets were lysed by sonication or high-pressure homogenization in lysis buffer B (50 mM Tris-HCl pH 8, 150 mM KCl, 0.5 mM EDTA, 1 mM DTT, 10% Glycerol, EDTA-free protease inhibitor tablet, 1 µg ml^−1 pepstatin A). After the lysate was applied to the StrepTrap column, the column was washed with wash buffer B (lysis buffer B lacking protease inhibitors) and eluted in the same buffer containing 2.5 mM desthiobiotin.
(§1) For all SMOR experiments, 24 × 50 mm high precision glass coverslips (Bioscience Tools) and drilled microscope slides were passivated with a combination of PEG and PEG-biotin (coverslips) or PEG only (slides) following a previously published protocol for SiMPull[31]. Reaction chambers (~20 µl) were created using double-sided tape and epoxy. Protein was immobilized on the surface with 0.2 mg ml^−1 NeutrAvidin in buffer C (20 mM HEPES pH 7.5, 150 mM KCl, 10% glycerol, 0.05% Tween-20, 1 mM DTT). Excess NeutrAvidin was washed away and incubated with either biotin-conjugated mouse monoclonal anti-Strep-Tag II antibody (LSBio, Cat. No. LS-C203632-100) or biotin-conjugated rabbit polyclonal anti-GFP antibody (Rockland, Cat. No. 600-406-215) diluted in buffer C + BSA (0.1 mg ml^−1; Molecular Biology Grade Bovine Serum Albumin). Activator WD40 and activated APC/C (typically 50 µl containing about 65 ng APC/C, of which only a small fraction is immobilized on the glass) were immobilized using anti-Strep-Tag II, while APC/C alone was immobilized with anti-GFP. SMOR results were similar when performed in the buffer (wash buffer B) used in polarization anisotropy.
(§2) To capture dynamic protein–protein interactions, dye-labeled substrate diluted in buffer C + BSA was added to the chamber containing immobilized proteins. Interactions were imaged by TIRF microscopy as described below. For optimal signal-to-noise ratio, peptide concentration was no greater than 1 nM. Protein substrates included Hsl1 aa 667–872 and a C-terminal HaloTag followed by a TAP tag, and were produced by translation in rabbit reticulocyte lysates using TnT Quick Coupled Transcription/Translation System (Promega) (see Supplementary Table 5 for plasmids). Protein was purified with magnetic IgG beads and labeled on the bead with JF549 or JF646 dye so that unbound dye could be washed away. Purified dye-labeled protein was then cleaved from the beads using TEV protease. Before adding substrate to the reaction chamber, oxygen scavenging reagents were added (10 nM protocatechuate-3,4-dioxygenase, 2.5 mM protocatechuic acid, and 1 mM Trolox)[41]. A detailed description of the SMOR analysis pipeline is found in Supplementary Note 1.
Microscopy was performed with a Nikon Eclipse TE2000-E with Perfect Focus with a 100 × 1.49na oil, Apo TIRF DIC N2, 0.13-0.2, WD0.12 objective. Movies were recorded using the Andor iXon DU-897E-CSO. For visualizing GFP-tagged protein, a 491 nm laser was used with an ET525/50 (Chroma) filter for emission. For visualizing JF549-labeled substrate, a 561 nm laser was used with an ET595/50 (Chroma) filter for emission. For visualizing all Cy5-labeled peptides and JF646-labeled substrates, a 640 nm laser was used with an ET685/70 filter (Chroma) for emission. […]

APC/C^apo = biological target: T2, APC/C^apo (Saccharomyces cerevisiae, UniProt P38042+P53068); assay: SMOR assay, yeast APC/C^apo (no activator); type: binding; conditions: Supplementary Table 1, single movie
T2 construct: APC/C was purified from yeast cells; made in house; host or cells: S. cerevisiae W303 strain NHY13 (Cdc16-TAP, Apc1-GFP, cdh1 deleted)
Experimental: Yeast strains were derivatives of W303 and are listed in Supplementary Table 2. For APC/C purification, we used a strain carrying Cdc16-TAP and lacking Cdh1 (DOM1126); in most experiments, the strain also carried Apc1-GFP (NHY13). Yeast were grown in YPD media to OD600 = 0.8, collected and flash-frozen. Cells were lysed by bead beating in lysis buffer A (50 mM HEPES pH 7.5, 150 mM KCl, 10% glycerol, 0.2% Triton X-100, 63 µM B-glycerophosphate, 48 µM sodium fluoride, 1 µg ml^−1 pepstatin A, 1 µg ml^−1 leupeptin, 1 µg ml^−1 aprotinin, 1 mM PMSF, 1 mM DTT, 0.5 mM EDTA) and APC/C was purified using magnetic IgG beads. The beads were washed using wash buffer A (20 mM HEPES pH 7.5, 150 mM KCl, 10% Glycerol, 0.05% Triton X-100). After incubation with purified Cdh1 or Cdc20, the APC/C was cleaved off the beads with TEV protease in wash buffer A with 0.05% Tween-20 (for single-molecule studies) or 0.05% Triton X-100 (for ensemble assays such as ubiquitylation) and used immediately.
as §1, §2
Microscopy was performed with a Nikon Eclipse TE2000-E with Perfect Focus with a 100 × 1.49na oil, Apo TIRF DIC N2, 0.13-0.2, WD0.12 objective. Movies were recorded using the Andor iXon DU-897E-CSO. For visualizing GFP-tagged protein, a 491 nm laser was used with an ET525/50 (Chroma) filter for emission. For visualizing JF549-labeled substrate, a 561 nm laser was used with an ET595/50 (Chroma) filter for emission. For visualizing all Cy5-labeled peptides and JF646-labeled substrates, a 640 nm laser was used with an ET685/70 filter (Chroma) for emission. Initially, for each substrate tested, we acquired movies at multiple intervals to deduce the optimal interval to decrease bleaching. µManager version 2.0 was used to control the microscope and record time-lapse movies.

[1] = Supplementary Table 1, replicate 1
[2] = Supplementary Table 1, replicate 2

Compound | Dwell Time (in words) (Cdh1^WD40; [1]) | Dwell Time (in words) (Cdh1^WD40; [2]) | Dwell Time (in words) (APC/C^apo) | binding (in words) (Cdh1^WD40)
CC(C)C[C@H](NC(=O)[C@H](C)NC(=O)[C@H](CCCNC(=N)N)NC(=O)[C@H](CCCNC(=N)N)NC(=O)[C@@H]1CCCN1C(=O)[C@H](CCCCN)NC(=O)[C@H](CO)NC(=O)[C@H](CC(=O)O)NC(=O)[C@@H](N)CCC(N)=O)C(=O)N[C@H](C(=O)N[C@@H](CC(=O)O)C(=O)N[C@H](C(=O)N1CCC[C@H]1C(=O)N[C@H](C(=O)N[C@@H](CC(N)=O)C(=O)N[C@@H](CC(N)=O)C(=O)N[C@@H](CC(N)=O)C(=O)N1CCC[C@H]1C(=O)N[C@@H](CC(C)C)C(=O)N[C@@H](CO)C(=O)N[C@@H](CCC(N)=O)C(=O)N[C@@H](CCCCN)C(=O)O)C(C)C)C(C)C)[C@@H](C)O [Clb5 D box] (H-QDSKPRRALTDVPVNNNPLSQK-OH; N-terminus and C-terminus assumed) | single frame | single frame | no binding | –
CC[C@H](C)[C@H](NC(=O)[C@H](CC(=O)O)NC(=O)[C@H](CO)NC(=O)[C@H](C)NC(=O)[C@H](C)NC(=O)[C@H](C)NC(=O)[C@H](C)NC(=O)[C@H](CCCCN)NC(=O)[C@@H]1CCCN1C(=O)[C@H](CCCCN)NC(=O)[C@H](CCC(N)=O)NC(=O)[C@@H](N)CCC(=O)O)C(=O)N[C@H](C(=O)N[C@@H](C)C(=O)N[C@@H](CO)C(=O)N[C@@H](Cc1ccccc1)C(=O)N[C@@H](CC(N)=O)C(=O)N[C@@H](CCCCN)C(=O)N[C@@H](CCSC)C(=O)N[C@@H](CC(N)=O)C(=O)N[C@@H](CCCCN)C(=O)O)[C@@H](C)O [Hsl1 D box mutant] (H-EQKPKAAAASDITASFNKMNK-OH; N-terminus and C-terminus assumed) | no binding | no binding | no binding | negligible binding; also recorded: No binding
CC[C@H](C)[C@H](NC(=O)[C@H](Cc1ccccc1)NC(=O)[C@H](CO)NC(=O)[C@H](CCCCN)NC(=O)[C@H](CO)NC(=O)[C@H](CCCNC(=N)N)NC(=O)[C@H](CC(N)=O)NC(=O)[C@H](CC(N)=O)NC(=O)[C@H](CC(=O)O)NC(=O)[C@H](CCCCN)NC(=O)[C@H](C)NC(=O)[C@H](C)NC(=O)[C@H](CC(C)C)NC(=O)[C@@H]1CCCN1C(=O)[C@H](CC(C)C)NC(=O)[C@H](CCCNC(=N)N)NC(=O)CNC(=O)[C@H](CCC(N)=O)NC(=O)[C@H](CCC(N)=O)NC(=O)[C@H](CCC(N)=O)NC(=O)[C@H](C)N)C(=O)N[C@@H](CCCCN)C(=O)O [ySecurin D box] (H-AQQQGRLPLAAKDNNRSKSFIK-OH; N-terminus and C-terminus assumed) | single frame | single frame | no binding | –
LIYVDKENGEPGTR-K(Cy5) [hSecurin KEN, Cy5-labeled KEN box peptide of human securin/Pttg1] | no binding | no binding | no binding | No binding
LPKATRKALGTVNRATEKSVK-K(Cy5) [AurKB D box, Cy5-labeled D box peptide of Aurora B kinase] | single frame | single frame | no binding | –
SKAAQFMLYEETAEERNI-K(Cy5) [Acm1 ABBA, Cy5-labeled Cdh1-specific ABBA motif from pseudosubstrate yeast protein Acm1] | single frame | single frame | no binding | –
